Test results as given in publication PMC4506598, “A small molecular agent YL529 inhibits VEGF-D-induced lymphangiogenesis and metastasis in preclinical tumor models in addition to its known antitumor activities” (BMC Cancer, 2015).
Read-outs that look alike come from different tables or passages of the source.

Tests used:
HLECs [1] = assay: CCK-8 cell viability assay; type: cell-based; settings: Homo sapiens, 48 h, read-out: IC50, proliferation of HLECs
Description: (§1) Cell viability assays were performed using CCK-8 kit. Briefly, VEGF-D-LL/2 cells, parental LL/2 cells and HLECs were treated with various concentrations of YL529 in 96-well culture plates for 48 h. CCK-8 was added to the cells and the plate was incubated for an additional 2–4 h. The optical density (OD) was then measured at 450 nm using a Spectra MAX M5 microplate spectrophotometer (Molecular Devices, Sunnyvale, CA).
CCK-8 assay was used to evaluate the potential proliferation inhibition effect of HLECs after treated with YL529 or vehicle for 48 h.

HLECs [2] = assay: scratch-induced (wound healing) migration assay; type: cell-based; settings: Homo sapiens, read-out: inhibition of cell migration
Description: The anti-metastasis effect of YL529 was determined using a scratch-induced cell migration assay in vitro [24, 25]. Briefly, 1 × 10^5 HLECs were plated in 6 well plates and synchronized by serum-free ECM medium for 8 h, then used a micropipette tip to create a 2 mm-wide linear gap. Cells were washed to remove non-adherent cells and further incubated with fresh ECM medium containing or lacking YL529. An inverted microscope (Carl Zeiss, Germany) was used to photograph after YL529 treatment for another 48 h.
We next examined the effects of YL529 on HLECs migration using a wound healing migration assay.

HLECs [3] = assay: transwell invasion assay; type: cell-based; settings: Homo sapiens, read-out: inhibition of cell invasion
Description: Transwell migration assay was adopted to indicate the anti-metastasis effect of YL529 [26]. Briefly, the transwell were pre-coated with 25 % Matrigel Matrix containing growth factors (BD Biosciences, Bedford, MA) for 30 min at 37 °C. And then the bottom chambers were filled with 600 μl ECM medium and the top chambers were seeded with 4 × 10^4 cells HLECs (100 μl/well). The top and bottom chambers were incubated for another 24 h. Then cells on the top surface of the membrane were scraped with a cotton swab. Cells on the bottom side of the membrane were fixed with 4 % paraformaldehyde and stained with 0.1 % crystal violet (Sigma-Aldrich, USA). An inverted microscope (Zeiss, Axiovert 200, Germany) was used to obtain the images and the invading cells were quantified.
To further measure the effect of YL529 on HLECs invasion, we used a transwell assay and measured the number of HLECs that passed through a membrane barrier following treatment with various concentrations of YL529 [29].

HLECs [4] = assay: tube formation assay; type: cell-based; settings: Homo sapiens, 6 h
Description: The antilymphogenic effects of YL529 were analyzed in vitro using a tube-formation assay in HLECs. Briefly, 96-well plate was pre-incubated with 100 μl per well of Matrigel Matrix at 37 °C for 30 min, HLECs were seeded at a density of 3 × 10^4 cells per well in ECM medium. And after cultured in the presence or absence of designed concentrations of YL529 on Matrigel Matrix at 37 °C another 6 h, tube formation by endothelial cells was evaluated and photographed under an inverse microscope (Zeiss, Axiovert 200, Germany).
To further understand the mechanism of the anti-lymphogenic effect of YL529, the antilymphogenic tube formation effect of YL529 was analyzed with cultured HLECs in vitro [30]. […] In great contrast, HLECs without YL529 treatment spread and aligned with each other and formed a rich meshwork of branching capillary-like tubules within 6 h (Fig. 2c).

VEGF-D-LL/2 cells [5] = assay: CCK-8 cell viability assay; type: cell-based, murine; settings: Mus musculus, 48 h, read-out: IC50, proliferation of VEGF-D-LL/2 cells
Description: The transfected murine LL/2 Lewis lung carcinoma cells with the pcDNA3.1 (+) expression vector containing mouse VEGF-D (VEGF-D-LL/2 cells) or pcDNA3.1 (vector alone) were transfected as reported before obtained in our laboratory. The cell lines were maintained in an atmosphere of 5 % CO2 at 37 °C in cell culture medium DMEM supplemented with 10 % fetal bovine serum. Western blot analysis was performed to analyze the expression of recombinant VEGF-D of these cells.
as §1
(§2) VEGF-D-LL/2 cells were previously established by transfection with the pcDNA3.1 (+) expression vector containing mouse VEGF-D [31]. Similar to the previous data from our group, this study uses a VEGF-D antibody that detects the mature form of VEGF-D, because the fully mature cleaved form of 21 kD has the greatest affinity for the receptors, and can bind and activate not only VEGFR-2 but also VEGFR-3.

parental LL/2 cells = assay: CCK-8 cell viability assay; type: cell-based, murine; settings: Mus musculus, 48 h, read-out: IC50, proliferation of parental LL/2 cells
Description: Human lymphatic endothelial cells (HLECs) were purchased from the ScienCell™ Research Laboratories and cultured in endothelial cell medium (ECM) containing 5 % fetal bovine serum (FBS), 1 % endothelial cell growth supplement (ECGS), 100 IU/mL penicillin and 100 μg/mL streptomycin. Lewis lung carcinoma LL/2 cells were obtained from American Type Culture Collection (ATCC) and cultured in DMEM containing 10 % FBS, 100 IU/mL penicillin and 100 μg/mL streptomycin. Subcultures were performed with trypsin-EDTA. All cells were incubated in an atmosphere of 5 % CO2 at 37 °C.
as §1, §2

p-VEGFR-3 = assay: western blot of VEGFR-3/p-VEGFR-3 in HLECs; type: cell-based, human; settings: after 2 h of treatment
Description: (§3) Standard western blot analysis was performed. Briefly, Cell lysates were washed with phosphate buffered saline (PBS) and lysed in RIPA (radioimmunoprecipitation assay) buffer. Then lysates were centrifuged at 12000 g for 30 min at 4 °C. The Bio-Rad Protein Assay kit (Bio-Rad Laboratories) was used to determine the samples protein concentration according to the manufacturers’ recommendations. The lysates were dissolved in 5 × SDS sample buffer and denatured, then subjected to 6 % to 12 % SDS-PAGE (sodium dodecyl sulfate polyacrylamide gel electrophoresis) according to molecular weight and transferred onto PVDF (polyvinylidene fluoride) (Bio-Rad, Hercules, CA) membranes. Membranes were blocked for 1 h in 5 % dried milk in TBS/T at room temperature and incubated overnight at 4 °C with the primary antibodies and horseradish peroxidase-conjugated secondary antibodies. Protein bands were visualized with enhanced chemiluminescent substrate (Amersham Biosciences Corp., Piscataway, NJ).
To gain in-depth insight into the molecular mechanism of anti-lymphangiogenesis effects of YL529, the expression levels of VEGFR-3/p-VEGFR-3 in HLECs were analyzed by western blotting in vitro.

VEGF-D-LL/2 cells [6] = assay: western blot of p-JNK, Bax, Bcl-2 in VEGF-D-LL/2 cells; type: cell-based, murine
Description: as §3

[7] = pharmacokinetics after oral administration in mice; type: in vivo, C57 BL/6 mice; settings: for half-life: po
Description: C57 BL/6 mice (n = 3 per time point) were administered 150 mg/kg YL529 orally. Blood samples of the mice were collected at appropriate intervals and the plasma concentration of YL529 was analyzed by HPLC (Waters, MA, USA). The pharmacokinetic characteristics and parameters were analyzed using Pharmacokinetic Software of Drug and Statistics (DAS, edited and published by the Mathematical Pharmacology Professional Committee of China, Shanghai, China).

VEGF-D-LL/2 tumors [8] = assay: VEGF-D-LL/2 syngeneic s.c. tumor model; type: in vivo
Description: (§4) Seven-week-old female C57 BL/6 mice (Beijing animal center, Beijing, China) were used. VEGE-D-LL/2 cells (1 × 10^6) were injected intramuscularly and subcutaneously in hind limb of mice. The mice were randomized into 5 groups (n = 10 per groups) and orally administered 37.5, 75 and 150 mg/kg/day YL529, vehicle and saline alone (N.S.), respectively for 14 days when tumors became visible the 10th day after cells were implanted. Tumor growth and mice weight was monitored every 3 days. When animals were sacrificed with CO2 gas at the end of drug administration, tumor tissues, lung organs and local lymph nodes were removed, weighted and calculated by manual. Tumor size was determined by measuring the largest and perpendicular diameters every 3 days, tumor volume was calculated using the formula: volume (mm^3) = 0.5 × length × width^2. In addition, the same subcutaneously tumor models were used to monitor the survival time of experimental mice after drug administration. All animals experiments performed were in accordance with the guidelines of the institute’s Animal Care and Use Committee of Sichuan University (Chengdu, China).
(§5) Tumor tissues from vehicle and 150 mg/kg YL529 groups were fixed in 4 % paraformaldehyde, dehydrated and embedded in paraffin [27]. Sections of these tissues were subsequently incubated with LYVE-1 and corresponding second antibodies and visualized using peroxidase-DAB. TUNEL staining was also performed for fixed tissues (Promega, USA). Quantification was done as described. Briefly, the microvessel counting was done in representative 200× fields or three high-power (400×) fields of the highest vascular density.
(§6) Based on the safety profile and the in vivo pharmacokinetics of YL529, chronic oral administration of YL529 at daily dosages of 37.5 ~ 150 mg/kg/day was chosen to treat the mice with VEGF-D-LL/2 tumors (syngeneic s.c. and muscle models).

VEGF-D-LL/2 tumors [9] = assay: VEGF-D-LL/2 syngeneic muscle tumor metastasis model; type: in vivo, C57 BL/6 mice; settings: for percent of mice with local lymph node metastasis: vehicle 80 % ~ 90 %
Description: as §4, §5, §6

safety profile in mice = type: in vivo; settings: 150 mg/kg daily for 18 days
Description: To evaluate the safety profile of YL529 (150 mg/kg) in vivo, we have observed the gross measures such as weight loss, life span, behavior and feedings. Moreover, we have also investigated the mortality and clinical signs of C57BL/6 mice throughout oral administration period. In addition, blood samples and heart, liver, spleen, lung, and kidney tissues of mice were collected; the histopathological, serum biochemistry and hematological analysis were done to observe the possible pathological changes. In addition, we also evaluated the safety profiles of YL529 after oral administration with high dose (6000 mg/kg) for 14 days.
Currently, side effects are the prevalent shortcomings of anticancer drugs.

[10] = high-dose toxicity, organ parameters in rats; type: in vivo; settings: SD rats; for Heart index / Kidney index / Liver index / Lung index / Spleen index: oral 6000 mg/kg
VEGFR-3 = settings: 10 μM; cited from earlier work
VEGFR2 = settings: 10 μM; cited from earlier work
[11] = C57 BL/6, mouse, plasma, single dose 150 mg/kg

## CNC(=O)c1cc(Oc2ccc(NC(=O)c3cccc(C(F)(F)F)c3)cc2)ccn1 [YL529, N-methyl-4-(4-(3-(trifluoromethyl)benzamido)phenoxy)picolinamide4-methylbenzenesulfonate]
HLECs [1]
  IC50: 5.5 µM
HLECs [2]; 2.5 μM
  inhibition at 2.5 µM: 44.3%
HLECs [2]; 5 μM
  inhibition at 5 µM: 66.8%
HLECs [2]; 10 μM
  inhibition at 10 µM: 79.8%
HLECs [3]; 2.5 μM, compared with vehicle
  inhibition at 2.5 µM: 28%
HLECs [3]; 5 μM
  inhibition at 5 µM: 65.9%
HLECs [3]; 10 μM
  inhibition at 10 µM: 90.2%
HLECs [4]
  inhibition at 10 µM: 85.7%
VEGF-D-LL/2 cells [5]
  IC50: 7.2 µM
Parental LL/2 cells
  IC50: 9.6 µM
p-VEGFR-3
  phosphorylation of VEGFR-3: potently inhibited
  total expression of VEGFR-3: no change
VEGF-D-LL/2 cells [6]
  expression level of Bcl-2: increased
  expression level of p-JNK: decreased
[7]; C57 BL/6, mouse, plasma, 150 mg/kg, read-out: peak plasma concentration (Cmax)
  Cmax: 18000 ng/mL
[7]; C57 BL/6, mouse, plasma, 150 mg/kg, single dose 150 mg/kg, read-out: t1/2z (converted)
  half-life: 4.11 h
[7]; C57 BL/6, mouse, plasma, 150 mg/kg, single dose 150 mg/kg, read-out: t1/2β (converted)
  half-life: 6.03 h
[7]; [11]
  AUC(0-inf): 171 µg·h/mL
  AUC(0-t): 167 µg·h/mL
  Tmax: 2 h
[7]; single dose 150 mg/kg
  Cmax: 18030 ng/mL
  T1/2α: 1.39 h
VEGF-D-LL/2 tumors [8]; 150 mg/kg
  apoptotic tumor cells (TUNEL), increase vs. vehicle: 20 fold
VEGF-D-LL/2 tumors [8]; 150 mg/kg group
  mice survived to 54 days: 60%
VEGF-D-LL/2 tumors [8]; YL529 treated groups
  mice survived to 40 days: 90%
VEGF-D-LL/2 tumors [8]; at this dosage
  body weight: no loss of body weight
VEGF-D-LL/2 tumors [8]; compared with vehicle-treated group, oral, dose not given
  tumor volume reduction: 66.22%
VEGF-D-LL/2 tumors [9]
  number of mice with lung metastasis and inguinal lymph node metastasis: significantly reduced
VEGF-D-LL/2 tumors [9]; 37.5 mg/kg group
  percent of mice with local lymph node metastasis: 50%
VEGF-D-LL/2 tumors [9]; 150 mg/kg for 14 days
  lymphangiogenesis in tumor tissues (LYVE-1 staining), change vs vehicle group: 34.71%
VEGF-D-LL/2 tumors [9]; 150 mg/kg group
  percent of mice with local lymph node metastasis: 20%
VEGF-D-LL/2 tumors [9]; end of drug administration
  body weight: no loss of body weight
Safety profile in mice
  body weight loss or tissue damage: no obvious body weight loss or tissue damage
[10]; 6000 mg/kg daily for 14 days
  weight changes of major organs (heart, liver, spleen, lung, kidney and brain): no obvious weight changes
[10]; female
  Heart index: 0.42 ± 0.09%
  Kidney index: 0.38 ± 0.09%
  Liver index: 3.13 ± 0.09%
  Lung index: 0.43 ± 0.06%
  Spleen index: 0.25 ± 0.03%
[10]; male
  Heart index: 0.42 ± 0.06%
  Kidney index: 0.38 ± 0.09%
  Liver index: 3.09 ± 0.13%
  Lung index: 0.42 ± 0.09%
  Spleen index: 0.24 ± 0.04%
VEGFR-3
  inhibition of VEGFR-3 activity: 97%
VEGFR2
  inhibition of VEGFR2 activity: inhibited VEGFR2 activity
